From patent US8153687B2, “Gallium complexes with polyalcohols and methods of use” (priority 2009, dated 2012)

Tested on: Pseudomonas aeruginosa
Assay: Topical treatment of a recalcitrant Pseudomonas aeruginosa infected diabetic foot ulcer (case)
Assay type: in vivo
Details: severe diabetic foot ulcer with biofilm formation

O=C(O)c1cn(C2CC2)c2cc(N3CCNCC3)c(F)cc2c1=O [ciprofloxacin]
response of the infection to treatment (oral treatment): does not respond | response of the infection to treatment (topical treatment): does not respond

Oc1cc(Cl)ccc1Oc1ccc(Cl)cc1Cl [triclosan]
response of the infection to treatment (topical treatment): does not respond

gentamicin
response of the infection to treatment (topical treatment): does not respond
